Test results as given in patent US5094945A, “Inhibition resistant 5-enolpyruvyl-3-phosphoshikimate synthase, production and use” (priority 1988, dated 1992).

Columns and labels:
[1] = test system: S. typhimurium strain CTF3; test: Spot test for glyphosate resistance; assay type: cell-based
Experimental: (§1) Glyphosate was added to M9 after autoclaving. For selection experiments, a commercial solution of glyphosate was used. Resistant mutants were isolated by plating bacterial suspensions in M9 broth or on M9 solid medium supplemented with varying amounts of glyphosate. The level of resistance achieved by the mutants was scored by three types of tests: a spot test, consisting of toothpicking a small colony from a non-selective to a selective medium; a streak test, consisting of streaking cells on a selective plate to obtain single colonies; and growth curves, to determine the kinetics of growth in liquid medium supplemented with glyphosate.

[2] = test system: aroA E. coli strains with pPMG11; test: Glyphosate resistance of aroA E. coli carrying pPMG11; assay type: cell-based; settings: 5.5 Kb BglII/HindIII Salmonella DNA segment (pPMG11)
Experimental: as §1
To subclone the aroA-Pmg^r gene, plasmid pPMG1 was digested with the restriction endonuclease BglII. […] Plasmid pPMG1 was digested to completion with BglII, ligated in vitro and the DNA transformed into strain LC2 selecting for aroA complementation. Clones were screened and plasmids containing the 10 Kb BglII fragment in both orientations relative to the vector pVK100 were identified. Plasmids pPMG5 and pPMG6 complemented aroA E. coli strains and conferred high levels of glyphosate resistance. Further subcloning was accomplished by digesting plasmid pPMG5 with BglII and HindIII and ligating in vitro. Strain LC2 was transformed and colonies which were aroA+ and kanamycin sensitive were selected. […] This plasmid was designated pPMG11.

[3] = test system: EPSP synthase from wild type turnip gall; test: EPSP synthase activity with inhibitor, wild type turnip gall extract; assay type: biochemical; settings: pH 7.0, PEP 500 μM, shik 3P 500 μM
Experimental: (§2) In the next study, the effect of glyphosate and antiserum to bacterial EPSP synthase on EPSP synthase activities from the glyphosate-resistant strain of S. typhimurium, from the wild-type turnip gall and from ocs-aroA turnip gall was studied. Enzyme activity was assayed fluorometrically in the forward direction as described by Boocock and Coggins, supra.

[4] = target: T1, EPSP synthase purified from the mutant glyphosate-resistant strain (Salmonella typhimurium, UniProt P07637, P101S); test: Fluorimetric EPSP synthase assay, forward direction, purified mutant enzyme; assay type: biochemical, S. typhimurium
T1 construct: ES-3-P synthase purified from wild-type S. typhimurium and from the mutant glyphosate-resistant strain; endogenous in cells; host or cells: mutant glyphosate-resistant S. typhimurium strain (purified)
T1 sequence (P07637 whole entry P101S): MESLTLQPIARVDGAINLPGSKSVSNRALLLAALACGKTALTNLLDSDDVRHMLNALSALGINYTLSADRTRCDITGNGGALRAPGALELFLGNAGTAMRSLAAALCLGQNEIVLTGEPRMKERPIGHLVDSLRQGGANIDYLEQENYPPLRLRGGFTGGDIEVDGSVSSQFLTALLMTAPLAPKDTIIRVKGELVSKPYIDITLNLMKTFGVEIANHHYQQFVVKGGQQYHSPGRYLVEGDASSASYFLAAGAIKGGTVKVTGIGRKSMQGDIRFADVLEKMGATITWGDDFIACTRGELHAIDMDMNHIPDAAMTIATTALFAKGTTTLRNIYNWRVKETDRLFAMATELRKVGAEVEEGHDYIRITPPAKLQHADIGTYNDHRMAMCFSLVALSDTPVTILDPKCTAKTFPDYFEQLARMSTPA
Experimental: (§3) In the next study, a comparison of the kinetic parameters at pH 7.0 of ES-3-P synthase purified from wild-type S. typhimurium and from the mutant glyphosate-resistant strain was made. Enzyme activity was assayed fluorometrically in the forward direction as described by Boocock and Coggins, FEBS Letters (1983) 154:127-133.

S. typhimurium CT7 = test: Growth in minimal medium supplemented with glyphosate, mutant; assay type: cell-based; settings: Salmonella enterica, read-out: growth inhibition
Experimental: as §1
(§4) The above assays were performed on enzyme preparations obtained from cells grown in minimal medium. To determine whether the enzyme of the glyphosate resistance mutant was differentially regulated during glyphosate induced stress, STK1, the wild type, and CT7 the mutant, were grown in minimal medium supplemented, respectively, with 70 μg/ml and 1000 μg/ml of glyphosate. These conditions give approximately 20-30% growth inhibition. The specific activity of preparations from cells grown in the presence of glyphosate was 10% higher than that found in preparations from cells grown without glyphosate.

[5] = test system: S. typhimurium strain TA831; test: Colony formation on solid M9 medium with glyphosate; assay type: cell-based; settings: Salmonella enterica, read-out: glyphosate concentration at which no colonies form
Experimental: as §1

[6] = target: T2, 5-enolpyruvyl-3-phosphoshikimate synthase from wild type strain STK1 (Salmonella typhimurium, UniProt P07637); test: ES-3-P synthase assay (release of inorganic phosphate), enzyme preparation of wild type strain STK1; assay type: biochemical, S. typhimurium
T2 construct: endogenous in cells; host or cells: S. typhimurium strain STK1, French press homogenate, protamine sulfate precipitate
T2 sequence (P07637 whole entry): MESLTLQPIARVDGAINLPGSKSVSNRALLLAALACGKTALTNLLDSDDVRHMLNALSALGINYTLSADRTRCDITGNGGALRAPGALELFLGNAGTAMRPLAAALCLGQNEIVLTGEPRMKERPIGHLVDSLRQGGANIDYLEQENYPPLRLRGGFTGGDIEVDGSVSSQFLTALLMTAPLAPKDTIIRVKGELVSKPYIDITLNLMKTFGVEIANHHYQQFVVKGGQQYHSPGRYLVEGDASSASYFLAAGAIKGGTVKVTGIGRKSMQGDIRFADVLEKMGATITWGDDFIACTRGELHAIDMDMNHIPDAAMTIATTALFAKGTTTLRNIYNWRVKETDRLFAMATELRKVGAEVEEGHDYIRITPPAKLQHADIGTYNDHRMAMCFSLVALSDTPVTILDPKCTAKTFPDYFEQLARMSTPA
Experimental: (§5) S. typhimurium strains CT7 and STK1 were grown with aeration for 24 hours at 37° C. in M9 broth. Cells were harvested by centrifugation at 4° C., washed twice with M9 salts, resuspended in 0.01 M Tris-HC1 (pH8.2) and sheared with a French press at 20,000 psi. The homogenate was centrifuged at 16,000 g for 40 min and the supernatant treated with 2% protamine sulfate (1.0 ml of 2% protamine sulfate for every 35 mg of protein). The precipitate was removed by centrifugation at 18,000 xg for 35 min, resuspended and used for enzyme assays. Activity of the enzyme was determined by measuring the rate of release of inorganic phosphate (Heinonen and Lahti, Anal. Biochem. (1981) 113:313-317).
(§6) A typical assay mixture contained 150 μmole maleic acid buffer (pH5.6), 2.88 μmole phosphoenolpyruvate, 4.08 μmole 3-phosphoshikimate and the enzyme fraction in a total volume of 1.5 ml. The reaction was started by addition of the enzyme after pre-incubation of the assay mixture at 37° C. for 5 min. Aliquots were taken at timed intervals and mixed immediately with the reagents for phosphate analysis. The low pH of the reagent (1.25 N H2 SO4) terminated enzyme activity.
(§7) Resistance to glyphosate mediated by a mutation(s) at the aroA locus could result from altered regulation leading to overproduction of 5-enolpyruvyl-3phosphoshikimate synthase or to a structural alteration of the enzyme. To distinguish between these two hypotheses in vitro enzyme preparations were assayed from Salmonella strains STK1 and CT7 which are the wild type and mutant strain respectively. 5-Enolpyruvyl-3-phosphoshikimate synthase activities from wild type and glyphosate-resistant mutants differed by Km for 3-phosphoshikimate, Kd for glyphosate, and at high concentration of 3-phosphoshikimate, by specific activity.

[7] = test system: aroA E. coli strain LC3 harboring pPMG1; test: Growth kinetics with glyphosate, LC3 harboring pPMG1; assay type: cell-based; settings: 2 μg/ml of glyphosate
Experimental: as §1
(§8) The growth kinetics of both S. typhimurium and E. coli strains with wild type and mutant aroA locus were investigated.

[8] = target: T3, EPSP synthase from the glyphosate-resistant strain of S. typhimurium (Salmonella typhimurium, UniProt P07637, P101S); test: EPSP synthase activity with inhibitor, bacterial mutant enzyme; assay type: biochemical; settings: pH 7, read-out: EPSP Synthase Activity, % control
T3 construct: EPSP synthase activities from the glyphosate-resistant strain of S. typhimurium; endogenous in cells; host or cells: glyphosate-resistant strain of S. typhimurium
T3 sequence (P07637 whole entry P101S): as the sequence (P07637 whole entry P101S) above
Experimental: as §2

S. typhimurium STK1 = test: Growth in minimal medium supplemented with glyphosate, wild type; assay type: cell-based; settings: Salmonella enterica, minimal medium with 70 μg/ml glyphosate
Experimental: as §1, §4

[9] = target: T4, 5-enolpyruvyl-3-phosphoshikimate synthase from glyphosate-resistant mutant CT7 (Salmonella typhimurium, UniProt P07637, P101S); test: ES-3-P synthase assay (release of inorganic phosphate), enzyme preparation of glyphosate-resistant mutant CT7; assay type: biochemical, S. typhimurium
T4 construct: endogenous in cells; host or cells: S. typhimurium strain CT7, French press homogenate, protamine sulfate precipitate
T4 sequence (P07637 whole entry P101S): as above
Experimental: as §5, §6
(§9) Resistance to glyphosate mediated by a mutation(s) at the aroA locus could result from altered regulation leading to overproduction of 5-enolpyruvyl-3phosphoshikimate synthase or to a structural alteration of the enzyme. […]

[10] = test system: S. typhimurium Pmg^r mutants (fifteen mutants, incl. CT7); test: Streak test on M9 medium with glyphosate; assay type: cell-based; settings: streaked on M9 medium
Experimental: as §1

[11] = target: T5, EPSP synthase purified from wild type S. typhimurium (Salmonella typhimurium, UniProt P07637); test: Fluorimetric EPSP synthase assay, forward direction, purified wild type enzyme; assay type: biochemical; settings: pH 7.0, 500 μM shik 3-P, read-out: Ki for glyphosate
T5 construct: ES-3-P synthase purified from wild-type S. typhimurium; endogenous in cells; host or cells: wild-type S. typhimurium (purified)
T5 sequence (P07637 whole entry): as the sequence (P07637 whole entry) above
Experimental: as §3

[12] = test system: EPSP synthase from ocs-aroA transformed turnip gall; test: EPSP synthase activity with inhibitor, ocs-aroA transformed turnip gall extract; assay type: biochemical; settings: pH 7.0, PEP 500 μM, shik 3P 500 μM
Experimental: as §2

wild type E. coli = test: Growth kinetics with glyphosate, wild type E. coli; assay type: cell-based
Experimental: as §1, §8

[13] = test system: O=C(O)C1=C[C@@H](OP(=O)(O)O)[C@@H](O)[C@H](O)C1; test: ES-3-P synthase assay (release of inorganic phosphate), enzyme preparation of wild type strain STK1; assay type: biochemical, S. typhimurium; settings: other: STK1 wild type enzyme preparation; phosphoenolpyruvate 2.5 × 10^-1 M; 37.0 °C
Experimental: as §5, §6, §7

[14] = test system: O=C(O)C1=C[C@@H](OP(=O)(O)O)[C@@H](O)[C@H](O)C1; test: ES-3-P synthase assay (release of inorganic phosphate), enzyme preparation of glyphosate-resistant mutant CT7; assay type: biochemical, S. typhimurium; settings: other: CT7 mutant enzyme preparation; phosphoenolpyruvate 2.5 × 10^-1 M; 37.0 °C
Experimental: as §5, §6, §9

C=C(OP(=O)(O)O)C(=O)O [15] = test: Fluorimetric EPSP synthase assay, forward direction, purified wild type enzyme; assay type: biochemical, S. typhimurium; settings: other: wild type, pH 7.0, 500 μM shik 3-P
Experimental: as §3

[16] = test system: O=C(O)C1=C[C@@H](OP(=O)(O)O)[C@@H](O)[C@H](O)C1; test: as above; assay type: biochemical, S. typhimurium; settings: other: wild type, pH 7.0, 500 μM PEP
Experimental: as §3

C=C(OP(=O)(O)O)C(=O)O [17] = test: Fluorimetric EPSP synthase assay, forward direction, purified mutant enzyme; assay type: biochemical, S. typhimurium; settings: other: mutant, pH 7.0, 500 μM shik 3-P
Experimental: as §3

[18] = test system: O=C(O)C1=C[C@@H](OP(=O)(O)O)[C@@H](O)[C@H](O)C1; test: as above; assay type: biochemical, S. typhimurium; settings: other: mutant, pH 7.0, 500 μM PEP
Experimental: as §3

O=C(O)CNCP(=O)(O)O [glyphosate, N-phosphonomethyl glycine]
glyphosate concentration to which the strain was resistant [1]: 350 µg/mL
level of glyphosate resistance conferred [2]: approx. 2 mg/ml
EPSP Synthase Activity, % control ([3]; glyphosate 100 μM): 8 % control
EPSP Synthase Activity, % control ([3]; glyphosate 500 μM): 2 % control
Ki [4]: 5 µM
inhibition at 1000 µg/mL (S. typhimurium CT7): 20 to 30%
MIC [5]: > 200 µg/mL
activation at 70 µg/mL ([6]; STK1 grown with 70 μg/ml glyphosate, read-out: increase of ES-3-P synthase specific activity, cells grown with vs without glyphosate): 10%
Kd ([6]; STK1 wild type enzyme preparation, read-out: Kd glyphosate): 22 µM
growth inhibition [7]: not significantly inhibited
remaining activity at 100 µM [8]: 35%
remaining activity at 500 µM [8]: 9%
inhibition at 70 µg/mL (S. typhimurium STK1): 20 to 30%
Kd [9]: 190 µM
glyphosate concentration on which colonies formed in 48 hours [10]: 2 mg/mL
Ki [11]: 1.5 µM
EPSP Synthase Activity, % control ([12]; glyphosate 100 μM): 29 % control
EPSP Synthase Activity, % control ([12]; glyphosate 500 μM): 9 % control
inhibition at 100 µg/mL (wild type E. coli; Escherichia coli, 100 μg/ml glyphosate, read-out: inhibition of growth rate): 40%
growth (wild type E. coli; one mg/ml glyphosate): no growth was observed

5-enolpyruvyl-3-phosphoshikimate synthase from wild type strain STK1 (Salmonella enterica subsp. enterica serovar Typhimurium str. LT2)
Km [13]: 340 µM

5-enolpyruvyl-3-phosphoshikimate synthase from glyphosate-resistant mutant CT7 (Salmonella enterica subsp. enterica serovar Typhimurium str. LT2; P101S)
Km [14]: 2800 µM

EPSP synthase purified from wild type S. typhimurium (Salmonella enterica subsp. enterica serovar Typhimurium str. LT2)
Km (C=C(OP(=O)(O)O)C(=O)O [15]): 30 µM
Km [16]: 2.6 µM

EPSP synthase purified from the mutant glyphosate-resistant strain (Salmonella enterica subsp. enterica serovar Typhimurium str. LT2; P101S)
Km (C=C(OP(=O)(O)O)C(=O)O [17]): 22 µM
Km [18]: 1.6 µM
